Experimental data from patent publication US20230085307A1, “PYRIDAZINONE COMPOUND AND HERBICIDE” (NISSAN CHEMICAL CORPORATION, priority 2019, published 2023).

Assays:
late watergrass = experiment: Test Example 2: herbicidal activity, application during weed generation under submerged conditions (Table 17, symbol A); assay type: in vivo, late watergrass (Echinochloa oryzicola); conditions: AAH 320 g/ha; application during weed generation, submerged conditions
In short: (§1)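 Wagner pot, alluvial soil, 4 cm flood; mixed sowing of all species; greenhouse 25° C.–30° C. Emulsifiable formulation, water-diluted to predetermined dose, applied to paddy water at 1–2 leaf stage. Effect rated at 3 wk using the earlier test's scoring criteria.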

Japanese bulrush = experiment: Test Example 2: herbicidal activity, application during weed generation under submerged conditions (Table 17, symbol B); assay type: in vivo, Japanese bulrush (Schoenoplectus juncoides); conditions: AAH 320 g/ha; application during weed generation, submerged conditions
In short: as §1

oval-leafed pondweed = experiment: Test Example 2: herbicidal activity, application during weed generation under submerged conditions (Table 17, symbol C); assay type: in vivo, oval-leafed pondweed (Monochoria vaginalis); conditions: AAH 320 g/ha; application during weed generation, submerged conditions
In short: as §1

barnyard grass [1] = experiment: Test Example 3: herbicidal effect by foliage application, Wagner pot (Table 18, symbol H); assay type: in vivo, barnyard grass (Echinochloa crus-galli); conditions: 320 g/ha
In short: (§2)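 Plants were sown in alluvial soil held under 0.1–0.5 cm standing water and grown 14 days in a greenhouse at 25–30 °C. An emulsifiable formulation, water-diluted to the set dose, was then sprayed onto the foliage, and effects were scored three weeks later using previously defined criteria.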

Chinese sprangletop = experiment: Test Example 3: herbicidal effect by foliage application, Wagner pot (Table 18, symbol D); assay type: in vivo, chinese sprangletop (Leptochloa chinensis); conditions: 320 g/ha
In short: as §2

rice flat sedge = experiment: Test Example 3: herbicidal effect by foliage application, Wagner pot (Table 18, symbol E); assay type: in vivo, rice flat sedge (Cyperus iria); conditions: 320 g/ha
In short: as §2

southern crabgrass [2] = experiment: Test Example 4: herbicidal effect by soil treatment (Table 19, symbol F); assay type: in vivo, southern crabgrass (Digitaria ciliaris); conditions: amount of applied herbicide 320 g/ha
In short: (§3)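 Herbicidal effect was rated 3 weeks after treatment, using the scoring criteria of an earlier test. The compound, formulated as an emulsion and diluted in water to a set herbicide amount, had been sprayed uniformly on soil over freshly sown seeds. Growth took place in a greenhouse at 25° C. to 30° C.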

green foxtail [3] = experiment: Test Example 4: herbicidal effect by soil treatment (Table 19, symbol G); assay type: in vivo, green foxtail (Setaria viridis); conditions: amount of applied herbicide 320 g/ha
In short: as §3

barnyard grass [4] = experiment: Test Example 4: herbicidal effect by soil treatment (Table 19, symbol H); assay type: in vivo, barnyard grass (Echinochloa crus-galli); conditions: amount of applied herbicide 320 g/ha
In short: as §3

wild oat [5] = experiment: Test Example 4: herbicidal effect by soil treatment (Table 19, symbol I); assay type: in vivo, wild oat (Avena fatua); conditions: amount of applied herbicide 320 g/ha
In short: as §3

blackgrass [6] = experiment: Test Example 4: herbicidal effect by soil treatment (Table 19, symbol J); assay type: in vivo, blackgrass (Alopecurus myosuroides); conditions: amount of applied herbicide 320 g/ha
In short: as §3

Italian ryegrass [7] = experiment: Test Example 4: herbicidal effect by soil treatment (Table 19, symbol K); assay type: in vivo, Italian ryegrass (Lolium multiflorum); conditions: amount of applied herbicide 320 g/ha
In short: as §3

windgrass [8] = experiment: Test Example 4: herbicidal effect by soil treatment (Table 19, symbol L); assay type: in vivo, windgrass (Apera spica-venti); conditions: amount of applied herbicide 320 g/ha
In short: as §3

velvetleaf [9] = experiment: Test Example 4: herbicidal effect by soil treatment (Table 19, symbol M); assay type: in vivo, velvetleaf (Abutilon theophrasti); conditions: amount of applied herbicide 320 g/ha
In short: as §3

redroot pigweed [10] = experiment: Test Example 4: herbicidal effect by soil treatment (Table 19, symbol N); assay type: in vivo, redroot pigweed (Amaranthus retroflexus); conditions: amount of applied herbicide 320 g/ha
In short: as §3

lambsquarters [11] = experiment: Test Example 4: herbicidal effect by soil treatment (Table 19, symbol O); assay type: in vivo, lambsquarters (Chenopodium album); conditions: amount of applied herbicide 320 g/ha
In short: as §3

chickweed [12] = experiment: Test Example 4: herbicidal effect by soil treatment (Table 19, symbol P); assay type: in vivo, common chickweed (Stellaria media); conditions: amount of applied herbicide 320 g/ha
In short: as §3

false cleavers [13] = experiment: Test Example 4: herbicidal effect by soil treatment (Table 19, symbol Q); assay type: in vivo, false cleavers (Galium spurium); conditions: amount of applied herbicide 320 g/ha
In short: as §3

persian speedwell [14] = experiment: Test Example 4: herbicidal effect by soil treatment (Table 19, symbol R); assay type: in vivo, Persian speedwell (Veronica persica); conditions: amount of applied herbicide 320 g/ha
In short: as §3

southern crabgrass [15] = experiment: Test Example 5: herbicidal effect by foliage application, plastic box (Table 20, symbol F); assay type: in vivo, southern crabgrass (Digitaria ciliaris); conditions: foliage application, 320 g/ha, evaluated three weeks after application
In short: (§4)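 Foliar spray test: emulsion formulation diluted in water to a set application rate, sprayed onto 14-day-old plants raised in diluvial soil at 25° C to 30° C under glass. Both herbicidal effect and crop effect rated visually three weeks later.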

green foxtail [16] = experiment: Test Example 5: herbicidal effect by foliage application, plastic box (Table 20, symbol G); assay type: in vivo, green foxtail (Setaria viridis); conditions: foliage application, 320 g/ha, evaluated three weeks after application
In short: as §4

barnyard grass [17] = experiment: Test Example 5: herbicidal effect by foliage application, plastic box (Table 20, symbol H); assay type: in vivo, barnyard grass (Echinochloa crus-galli); conditions: foliage application, 320 g/ha, evaluated three weeks after application
In short: as §4

wild oat [18] = experiment: Test Example 5: herbicidal effect by foliage application, plastic box (Table 20, symbol I); assay type: in vivo, wild oat (Avena fatua); conditions: foliage application, 320 g/ha, evaluated three weeks after application
In short: as §4

blackgrass [19] = experiment: Test Example 5: herbicidal effect by foliage application, plastic box (Table 20, symbol J); assay type: in vivo, blackgrass (Alopecurus myosuroides); conditions: foliage application, 320 g/ha, evaluated three weeks after application
In short: as §4

Italian ryegrass [20] = experiment: Test Example 5: herbicidal effect by foliage application, plastic box (Table 20, symbol K); assay type: in vivo, Italian ryegrass (Lolium multiflorum); conditions: foliage application, 320 g/ha, evaluated three weeks after application
In short: as §4

windgrass [21] = experiment: Test Example 5: herbicidal effect by foliage application, plastic box (Table 20, symbol L); assay type: in vivo, windgrass (Apera spica-venti); conditions: foliage application, 320 g/ha, evaluated three weeks after application
In short: as §4

velvetleaf [22] = experiment: Test Example 5: herbicidal effect by foliage application, plastic box (Table 20, symbol M); assay type: in vivo, velvetleaf (Abutilon theophrasti); conditions: foliage application, 320 g/ha, evaluated three weeks after application
In short: as §4

redroot pigweed [23] = experiment: Test Example 5: herbicidal effect by foliage application, plastic box (Table 20, symbol N); assay type: in vivo, redroot pigweed (Amaranthus retroflexus); conditions: foliage application, 320 g/ha, evaluated three weeks after application
In short: as §4

lambsquarters [24] = experiment: Test Example 5: herbicidal effect by foliage application, plastic box (Table 20, symbol O); assay type: in vivo, lambsquarters (Chenopodium album); conditions: foliage application, 320 g/ha, evaluated three weeks after application
In short: as §4

chickweed [25] = experiment: Test Example 5: herbicidal effect by foliage application, plastic box (Table 20, symbol P); assay type: in vivo, common chickweed (Stellaria media); conditions: foliage application, 320 g/ha, evaluated three weeks after application
In short: as §4

false cleavers [26] = experiment: Test Example 5: herbicidal effect by foliage application, plastic box (Table 20, symbol Q); assay type: in vivo, false cleavers (Galium spurium); conditions: foliage application, 320 g/ha, evaluated three weeks after application
In short: as §4

persian speedwell [27] = experiment: Test Example 5: herbicidal effect by foliage application, plastic box (Table 20, symbol R); assay type: in vivo, Persian speedwell (Veronica persica); conditions: foliage application, 320 g/ha, evaluated three weeks after application
In short: as §4

CCCC(=O)Oc1c(C)nn(C)c(=O)c1-c1c(-c2ccc(OC(C)C)cc2)sc2ccc(Cl)cc12 [2-108]
herbicidal effect rating, A: late watergrass (late watergrass): 3 (Herbicidal rate of 40% or more and less than 70%)
herbicidal effect rating, B: Japanese bulrush (Japanese bulrush): 0 (Herbicidal rate of 5% or less (almost no effect))
herbicidal effect rating, C: oval-leafed pondweed (oval-leafed pondweed): 0 (Herbicidal rate of 5% or less (almost no effect))
herbicidal effect on H (barnyard grass), rating 0-5 (barnyard grass [1]): 4 (Herbicidal rate of 70% or more and less than 90%)
herbicidal effect on D (Chinese sprangletop), rating 0-5 (Chinese sprangletop): 0 (Herbicidal rate of 5% or less (almost no effect))
herbicidal effect on E (rice flat sedge), rating 0-5 (rice flat sedge): 2 (Herbicidal rate of 20% or more and less than 40%)
F: southern crabgrass, herbicidal effect rating (southern crabgrass [2]): 0 (Herbicidal rate of 5% or less (almost no effect))
G: green foxtail, herbicidal effect rating (green foxtail [3]): 0 (Herbicidal rate of 5% or less (almost no effect))
H: barnyard grass, herbicidal effect rating (barnyard grass [4]): 0 (Herbicidal rate of 5% or less (almost no effect))
I: wild oat, herbicidal effect rating (wild oat [5]): 0 (Herbicidal rate of 5% or less (almost no effect))
J: blackgrass, herbicidal effect rating (blackgrass [6]): 0 (Herbicidal rate of 5% or less (almost no effect))
K: Italian ryegrass, herbicidal effect rating (Italian ryegrass [7]): 0 (Herbicidal rate of 5% or less (almost no effect))
L: windgrass, herbicidal effect rating (windgrass [8]): 0 (Herbicidal rate of 5% or less (almost no effect))
M: velvetleaf, herbicidal effect rating (velvetleaf [9]): 0 (Herbicidal rate of 5% or less (almost no effect))
N: redroot pigweed, herbicidal effect rating (redroot pigweed [10]): 0 (Herbicidal rate of 5% or less (almost no effect))
O: lambsquarters, herbicidal effect rating (lambsquarters [11]): 0 (Herbicidal rate of 5% or less (almost no effect))
P: chickweed, herbicidal effect rating (chickweed [12]): 0 (Herbicidal rate of 5% or less (almost no effect))
Q: false cleavers, herbicidal effect rating (false cleavers [13]): 0 (Herbicidal rate of 5% or less (almost no effect))
R: persian speedwell, herbicidal effect rating (persian speedwell [14]): 4 (Herbicidal rate of 70% or more and less than 90%)
herbicidal effect on F: southern crabgrass (southern crabgrass [15]): 0 (Herbicidal rate of 5% or less (almost no effect))
herbicidal effect on G: green foxtail (green foxtail [16]): 0 (Herbicidal rate of 5% or less (almost no effect))
herbicidal effect on H: barnyard grass (barnyard grass [17]): 0 (Herbicidal rate of 5% or less (almost no effect))
herbicidal effect on I: wild oat (wild oat [18]): 0 (Herbicidal rate of 5% or less (almost no effect))
herbicidal effect on J: blackgrass (blackgrass [19]): 0 (Herbicidal rate of 5% or less (almost no effect))
herbicidal effect on K: Italian ryegrass (Italian ryegrass [20]): 0 (Herbicidal rate of 5% or less (almost no effect))
herbicidal effect on L: windgrass (windgrass [21]): 0 (Herbicidal rate of 5% or less (almost no effect))
herbicidal effect on M: velvetleaf (velvetleaf [22]): 2 (Herbicidal rate of 20% or more and less than 40%)
herbicidal effect on N: redroot pigweed (redroot pigweed [23]): 3 (Herbicidal rate of 40% or more and less than 70%)
herbicidal effect on O: lambsquarters (lambsquarters [24]): 1 (Herbicidal rate of 5% or more and less than 20%)
herbicidal effect on P: chickweed (chickweed [25]): 4 (Herbicidal rate of 70% or more and less than 90%)
herbicidal effect on Q: false cleavers (false cleavers [26]): 0 (Herbicidal rate of 5% or less (almost no effect))
herbicidal effect on R: persian speedwell (persian speedwell [27]): 5 (Herbicidal rate of 90% or more (almost completely withered))
